{"source": "ChEMBL document CHEMBL5113413", "about": "“New peptidomimetic rhodesain inhibitors with improved selectivity towards human cathepsins” (Eur J Med Chem, 2022)", "key": {"Rhodesain": {"target": "Rhodesain (Trypanosoma brucei rhodesiense, UniProt Q95PM0)", "sequence (Q95PM0 whole entry)": "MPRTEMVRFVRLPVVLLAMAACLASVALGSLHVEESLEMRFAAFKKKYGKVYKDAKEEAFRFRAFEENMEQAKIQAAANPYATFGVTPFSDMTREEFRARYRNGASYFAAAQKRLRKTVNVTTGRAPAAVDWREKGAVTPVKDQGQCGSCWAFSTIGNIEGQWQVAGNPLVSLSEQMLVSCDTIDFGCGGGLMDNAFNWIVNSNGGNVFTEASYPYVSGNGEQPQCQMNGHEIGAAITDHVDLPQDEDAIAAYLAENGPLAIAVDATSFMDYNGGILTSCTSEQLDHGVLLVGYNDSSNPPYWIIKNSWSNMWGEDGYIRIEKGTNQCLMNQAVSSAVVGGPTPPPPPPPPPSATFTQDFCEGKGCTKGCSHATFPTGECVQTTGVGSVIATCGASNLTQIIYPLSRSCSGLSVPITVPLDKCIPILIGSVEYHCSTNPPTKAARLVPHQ", "experiment": "Irreversible inhibition of Trypanosoma brucei rhodesiense rhodesain assessed as inhibition constant using Cbz-Phe-Arg-AMC as fluorogenic substrate by fluorometric assay"}, "[1]": {"tested_on": "Trypanosoma brucei brucei", "experiment": "Antitrypanosomal activity against Trypanosoma brucei brucei BS449 assessed as luminescence incubated for 48 hrs by ATPlite assay", "format": "functional, organism-based", "settings": "BS449, 48 h"}, "Procathepsin L [2]": {"target": "T1, Procathepsin L (Homo sapiens, UniProt P07711)", "experiment": "Irreversible inhibition of human Cathepsin L assessed as inhibition constant using Cbz-Phe-Arg-AMC as fluorogenic substrate by fluorometric assay"}, "Cathepsin B [3]": {"target": "T2, Cathepsin B (Homo sapiens, UniProt P07858)", "experiment": "Irreversible inhibition of human Cathepsin B assessed as inhibition constant using Cbz-Phe-Arg-AMC as fluorogenic substrate by fluorometric assay"}, "[4]": {"target": "T3, 20S proteasome (Homo sapiens) (UniProt P49721+P20618+P28074+P28062+P28065+P28072+P25786+P25787+P25788+P25789+P28066+P60900+O14818+Q8TAA3+P40306+A5LHX3+P49720+P28070+Q99436)", "experiment": "Inhibition of human 20S proteasome caspase-like activity at 11 uM using Cbz-Leu-Leu-Glu-AMC as fluorogenic substrate by fluorometric assay", "format": "protein-complex assay"}, "[5]": {"target": "Genome polyprotein (dengue virus type 2) (UniProt P29990)", "experiment": "Inhibition of Dengue virus NS2B-NS3 protease at 11 uM using Boc-Gly-Arg-Arg-AMC as fluorogenic substrate by fluorometric assay"}, "Procathepsin L [6]": {"target": "T1, Procathepsin L", "experiment": "Inhibition of human Cathepsin L at 20 uM using Cbz-Phe-Arg-AMC as fluorogenic substrate by fluorometric assay"}, "Cathepsin B [7]": {"target": "T2, Cathepsin B", "experiment": "Inhibition of human Cathepsin B at 20 uM using Cbz-Phe-Arg-AMC as fluorogenic substrate by fluorometric assay"}, "[8]": {"target": "Rhodesain (Trypanosoma brucei rhodesiense) (UniProt Q95PM0)", "sequence (Q95PM0 1-450)": "as the sequence (Q95PM0 whole entry) above", "experiment": "Irreversible inhibition of Trypanosoma brucei rhodesiense rhodesain assessed as Kinact using Cbz-Phe-Arg-AMC as fluorogenic substrate by fluorometric assay"}, "[9]": {"target": "Rhodesain (Trypanosoma brucei rhodesiense) (UniProt Q95PM0)", "experiment": "Irreversible inhibition of Trypanosoma brucei rhodesiense rhodesain assessed as second order rate constant using Cbz-Phe-Arg-AMC as fluorogenic substrate by fluorometric assay"}, "[10]": {"experiment": "Cytotoxicity against mouse J774.1 cells assessed as reduction in cell viability incubated for 48 hrs by MTT assay", "format": "toxicity, cell-based"}, "[11]": {"target": "T3, 20S proteasome (Homo sapiens)", "experiment": "Inhibition of human 20S proteasome trypsin-like activity at 11 uM using Boc-Leu-Arg-Arg-AMC as fluorogenic substrate by fluorometric assay", "format": "protein-complex assay"}, "[12]": {"target": "Rhodesain (Trypanosoma brucei rhodesiense) (UniProt Q95PM0)", "experiment": "Reversible inhibition of Trypanosoma brucei rhodesiense rhodesain assessed as recovery of enzyme activity preincubated for 30 mins followed by substrate addition using Cbz-Phe-Arg-AMC as fluorogenic substrate by fluorometric 100-fold dilution assay"}, "[13]": {"target": "Rhodesain (Trypanosoma brucei rhodesiense) (UniProt Q95PM0)", "experiment": "Irreversible inhibition of Trypanosoma brucei rhodesiense rhodesain assessed as no recovery of enzyme activity preincubated for 30 mins followed by substrate addition using Cbz-Phe-Arg-AMC as fluorogenic substrate by fluorometric 100-fold dilution assay"}, "Procathepsin L [14]": {"target": "T1, Procathepsin L", "experiment": "Irreversible inhibition of human Cathepsin L assessed as Kinact using Cbz-Phe-Arg-AMC as fluorogenic substrate by fluorometric assay"}, "Procathepsin L [15]": {"target": "T1, Procathepsin L", "experiment": "Irreversible inhibition of human Cathepsin L assessed as second order rate constant using Cbz-Phe-Arg-AMC as fluorogenic substrate by fluorometric assay"}, "Cathepsin B [16]": {"target": "T2, Cathepsin B", "experiment": "Irreversible inhibition of human Cathepsin B assessed as Kinact using Cbz-Phe-Arg-AMC as fluorogenic substrate by fluorometric assay"}, "Cathepsin B [17]": {"target": "T2, Cathepsin B", "experiment": "Irreversible inhibition of human Cathepsin B assessed as second order rate constant using Cbz-Phe-Arg-AMC as fluorogenic substrate by fluorometric assay"}, "[18]": {"target": "T3, 20S proteasome (Homo sapiens)", "experiment": "Inhibition of human 20S proteasome chymotrypsin-like activity at 11 uM using Succ-Leu-Leu-Val-Tyr-AMC as fluorogenic substrate by fluorometric assay", "format": "protein-complex assay"}}, "note": "Active and inactive are the calls of the source. No cut-off for these calls is given here."}
{"smiles": "O=C(Cc1ccccc1C(=O)N[C@H](/C=C/S(=O)(=O)c1ccccc1)CCc1ccccc1)Nc1ccc(C(=O)O)cc1", "values": [{"measurement": "Ki", "setting": "Rhodesain", "result": 290, "unit": "nM"}, {"measurement": "EC50", "setting": "[1]", "result": 28000, "unit": "nM"}]}
{"smiles": "O=C(Cc1ccccc1C(=O)N[C@H](/C=C/S(=O)(=O)c1ccccc1)CCc1ccccc1)Nc1cccc(C(=O)O)c1", "values": [{"measurement": "Ki", "setting": "Rhodesain", "result": 17600, "unit": "nM"}, {"measurement": "EC50", "setting": "[1]", "result": "> 40000", "unit": "nM"}]}
{"smiles": "O=C(NCc1ccccc1C(=O)N[C@H](/C=C/S(=O)(=O)Oc1ccccc1)CCc1ccccc1)c1ccncc1", "values": [{"measurement": "Ki", "setting": "Rhodesain", "result": 9, "unit": "nM"}, {"measurement": "Ki", "setting": "Procathepsin L [2]", "result": 1150, "unit": "nM"}, {"measurement": "Ki", "setting": "Cathepsin B [3]", "result": 1010, "unit": "nM"}, {"measurement": "EC50", "setting": "[1]", "result": 4200, "unit": "nM"}, {"measurement": "inhibition", "setting": "[4]", "result": 41, "unit": "%"}, {"measurement": "inhibition", "setting": "[5]", "result": 26, "unit": "%"}]}
{"smiles": "O=C(NCc1ccccc1C(=O)N[C@H](/C=C(\\F)S(=O)(=O)Oc1ccccc1)CCc1ccccc1)c1cc(F)cc(F)c1", "values": [{"measurement": "Ki", "setting": "Rhodesain", "result": 638, "unit": "nM"}, {"measurement": "inhibition", "setting": "Procathepsin L [6]", "result": 14, "unit": "%"}, {"measurement": "inhibition", "setting": "Cathepsin B [7]", "result": "< 10", "unit": "%"}]}
{"smiles": "O=C(NCc1ccccc1C(=O)N[C@H](/C=C(\\F)S(=O)(=O)Cc1ccccc1)CCc1ccccc1)c1ccncc1", "values": [{"measurement": "Ki", "setting": "Rhodesain", "result": 840, "unit": "nM"}]}
{"smiles": "O=C(NCc1ccccc1C(=O)N[C@H](/C=C/S(=O)(=O)Cc1ccccc1)CCc1ccccc1)c1cc(F)cc(F)c1", "values": [{"measurement": "Ki", "setting": "Rhodesain", "result": 356, "unit": "nM"}, {"measurement": "Kinact", "setting": "[8]", "result": 0.0125, "unit": "s⁻¹"}, {"measurement": "Second-order inactivation rate constant (kinact/Ki)", "setting": "[9]", "result": "0.35 10^5/M/s"}, {"measurement": "inhibition", "setting": "Procathepsin L [6]", "result": 31, "unit": "%"}, {"measurement": "inhibition", "setting": "Cathepsin B [7]", "result": "< 10", "unit": "%"}]}
{"smiles": "O=C(NCc1ccccc1C(=O)N[C@H](/C=C/S(=O)(=O)Cc1ccccc1)CCc1ccccc1)c1ccc2c(c1)OCCO2", "values": [{"measurement": "Ki", "setting": "Rhodesain", "result": 59, "unit": "nM"}, {"measurement": "Kinact", "setting": "[8]", "result": 0.0038, "unit": "s⁻¹"}, {"measurement": "Second-order inactivation rate constant (kinact/Ki)", "setting": "[9]", "result": "0.64 10^5/M/s"}, {"measurement": "inhibition", "setting": "Procathepsin L [6]", "result": 39, "unit": "%"}, {"measurement": "inhibition", "setting": "Cathepsin B [7]", "result": "< 10", "unit": "%"}]}
{"smiles": "O=C(O)c1cccc(C(=O)NCc2ccccc2C(=O)N[C@H](/C=C/S(=O)(=O)c2ccccc2)CCc2ccccc2)c1", "values": [{"measurement": "Ki", "setting": "Rhodesain", "result": 7430, "unit": "nM"}, {"measurement": "EC50", "setting": "[1]", "result": 15000, "unit": "nM"}, {"measurement": "CC50 at 48 h", "setting": "[10]", "result": "> 100000", "unit": "nM"}]}
{"smiles": "O=C(NCc1ccccc1C(=O)N[C@H](/C=C(\\F)S(=O)(=O)c1ccccc1)CCc1ccccc1)c1ccc2c(c1)OCCO2", "values": [{"measurement": "Ki", "setting": "Rhodesain", "result": 339, "unit": "nM"}, {"measurement": "inhibition", "setting": "Procathepsin L [6]", "result": 31, "unit": "%"}, {"measurement": "inhibition", "setting": "Cathepsin B [7]", "result": "< 10", "unit": "%"}, {"measurement": "inhibition", "setting": "[11]", "result": 14, "unit": "%"}, {"measurement": "inhibition", "setting": "[4]", "result": 34, "unit": "%"}, {"measurement": "inhibition", "setting": "[12]", "result": "Active"}, {"measurement": "inhibition", "setting": "[13]", "result": "Active"}]}
{"smiles": "O=C(NCc1ccccc1C(=O)N[C@H](/C=C/S(=O)(=O)Cc1ccccc1)CCc1ccccc1)c1ccccc1", "values": [{"measurement": "Ki", "setting": "Rhodesain", "result": 389, "unit": "nM"}, {"measurement": "Kinact", "setting": "[8]", "result": 0.0095, "unit": "s⁻¹"}, {"measurement": "Second-order inactivation rate constant (kinact/Ki)", "setting": "[9]", "result": "0.24 10^5/M/s"}]}
{"smiles": "O=C(NCc1ccccc1C(=O)N[C@H](/C=C(\\F)S(=O)(=O)c1ccccc1)CCc1ccccc1)c1cc(F)cc(F)c1", "values": [{"measurement": "Ki", "setting": "Rhodesain", "result": 601, "unit": "nM"}]}
{"smiles": "O=C(NCc1ccccc1C(=O)N[C@H](/C=C/S(=O)(=O)c1ccccc1)CCc1ccccc1)c1ccc2c(c1)OCCO2", "values": [{"measurement": "Ki", "setting": "Rhodesain", "result": 504, "unit": "nM"}, {"measurement": "Kinact", "setting": "[8]", "result": 0.0005, "unit": "s⁻¹"}, {"measurement": "Second-order inactivation rate constant (kinact/Ki)", "setting": "[9]", "result": "0.01 10^5/M/s"}, {"measurement": "inhibition", "setting": "Procathepsin L [6]", "result": 41, "unit": "%"}, {"measurement": "inhibition", "setting": "Cathepsin B [7]", "result": "< 10", "unit": "%"}]}
{"smiles": "O=C(NCc1ccccc1C(=O)N[C@H](/C=C(\\F)S(=O)(=O)Oc1ccccc1)CCc1ccccc1)c1ccc2c(c1)OCCO2", "values": [{"measurement": "Ki", "setting": "Rhodesain", "result": 379, "unit": "nM"}, {"measurement": "inhibition", "setting": "Procathepsin L [6]", "result": 23, "unit": "%"}, {"measurement": "inhibition", "setting": "Cathepsin B [7]", "result": "< 10", "unit": "%"}, {"measurement": "EC50", "setting": "[1]", "result": 3000, "unit": "nM"}, {"measurement": "CC50 at 48 h", "setting": "[10]", "result": "> 100000", "unit": "nM"}, {"measurement": "inhibition", "setting": "[12]", "result": "Active"}, {"measurement": "inhibition", "setting": "[13]", "result": "Active"}]}
{"smiles": "O=C(NCc1ccccc1C(=O)N[C@H](/C=C/S(=O)(=O)Oc1ccccc1)CCc1ccccc1)c1ccc2c(c1)OCCO2", "values": [{"measurement": "Ki", "setting": "Rhodesain", "result": 10, "unit": "nM"}, {"measurement": "Kinact", "setting": "[8]", "result": 0.0079, "unit": "s⁻¹"}, {"measurement": "Second-order inactivation rate constant (kinact/Ki)", "setting": "[9]", "result": "7.9 10^5/M/s"}, {"measurement": "Ki", "setting": "Procathepsin L [2]", "result": 310, "unit": "nM"}, {"measurement": "Kinact", "setting": "Procathepsin L [14]", "result": 0.0104, "unit": "s⁻¹"}, {"measurement": "Second-order inactivation rate constant", "setting": "Procathepsin L [15]", "result": "3.34 10^4/M/s"}, {"measurement": "Ki", "setting": "Cathepsin B [3]", "result": 800, "unit": "nM"}, {"measurement": "Kinact", "setting": "Cathepsin B [16]", "result": 0.013, "unit": "s⁻¹"}, {"measurement": "Kdiss", "setting": "Cathepsin B [17]", "result": "1.64 10^4/M/s"}, {"measurement": "inhibition", "setting": "[4]", "result": 43, "unit": "%"}, {"measurement": "inhibition", "setting": "[18]", "result": 12, "unit": "%"}, {"measurement": "inhibition", "setting": "[5]", "result": 31, "unit": "%"}, {"measurement": "inhibition", "setting": "[13]", "result": "Active"}]}
{"smiles": "CN1CCN(C(=O)NCc2ccccc2C(=O)N[C@H](/C=C/S(=O)(=O)Cc2ccccc2)CCc2ccccc2)CC1", "values": [{"measurement": "Ki", "setting": "Rhodesain", "result": 318, "unit": "nM"}, {"measurement": "Kinact", "setting": "[8]", "result": 0.005, "unit": "s⁻¹"}, {"measurement": "Second-order inactivation rate constant (kinact/Ki)", "setting": "[9]", "result": "0.16 10^5/M/s"}]}
{"smiles": "CC(=O)NCc1ccccc1C(=O)N[C@H](/C=C/S(=O)(=O)c1ccccc1)CCc1ccccc1", "values": [{"measurement": "Ki", "setting": "Rhodesain", "result": 4680, "unit": "nM"}, {"measurement": "EC50", "setting": "[1]", "result": 13500, "unit": "nM"}, {"measurement": "CC50 at 48 h", "setting": "[10]", "result": 48000, "unit": "nM"}]}
